{"source": "patent US9301961B2", "about": "“Autoimmune and inflammatory disorder therapy” (Katholieke Universiteit Leuven, K.U. Leuven R&D, priority 2011, dated 2016)", "key": {"[1]": {"target": "T1, PI3KCB (PI3K p110β/p85α (h)) (Homo sapiens, UniProt P42338)", "T1 construct": "purchased Millipore", "T1 sequence (P42338 whole entry)": "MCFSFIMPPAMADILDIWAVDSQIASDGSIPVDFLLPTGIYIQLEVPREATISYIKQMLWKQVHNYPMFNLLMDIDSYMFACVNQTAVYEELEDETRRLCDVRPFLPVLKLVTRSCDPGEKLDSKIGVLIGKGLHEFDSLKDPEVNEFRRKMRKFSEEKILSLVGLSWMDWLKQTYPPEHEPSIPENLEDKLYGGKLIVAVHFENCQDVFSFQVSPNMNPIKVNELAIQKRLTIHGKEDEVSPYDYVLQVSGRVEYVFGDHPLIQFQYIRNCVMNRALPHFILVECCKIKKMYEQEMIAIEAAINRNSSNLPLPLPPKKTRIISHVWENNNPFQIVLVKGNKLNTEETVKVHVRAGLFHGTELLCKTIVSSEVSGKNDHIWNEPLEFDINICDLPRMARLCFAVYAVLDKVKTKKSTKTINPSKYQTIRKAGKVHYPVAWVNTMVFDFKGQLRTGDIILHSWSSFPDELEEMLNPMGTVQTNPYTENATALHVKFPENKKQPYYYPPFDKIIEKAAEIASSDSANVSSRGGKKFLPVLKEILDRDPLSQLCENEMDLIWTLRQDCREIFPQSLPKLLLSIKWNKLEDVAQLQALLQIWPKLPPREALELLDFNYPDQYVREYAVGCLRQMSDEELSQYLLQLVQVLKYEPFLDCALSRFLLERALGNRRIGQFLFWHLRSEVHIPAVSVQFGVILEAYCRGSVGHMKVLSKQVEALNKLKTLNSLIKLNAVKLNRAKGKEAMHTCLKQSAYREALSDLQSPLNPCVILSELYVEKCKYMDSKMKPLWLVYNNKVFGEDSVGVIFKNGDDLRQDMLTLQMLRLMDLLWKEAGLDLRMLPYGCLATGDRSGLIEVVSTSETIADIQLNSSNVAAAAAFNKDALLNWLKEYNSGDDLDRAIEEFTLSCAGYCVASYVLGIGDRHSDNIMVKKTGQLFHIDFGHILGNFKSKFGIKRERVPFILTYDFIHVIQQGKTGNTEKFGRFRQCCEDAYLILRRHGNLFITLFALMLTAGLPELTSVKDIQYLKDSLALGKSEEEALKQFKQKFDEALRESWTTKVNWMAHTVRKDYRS", "T1 sequence (P27986 whole entry partner)": "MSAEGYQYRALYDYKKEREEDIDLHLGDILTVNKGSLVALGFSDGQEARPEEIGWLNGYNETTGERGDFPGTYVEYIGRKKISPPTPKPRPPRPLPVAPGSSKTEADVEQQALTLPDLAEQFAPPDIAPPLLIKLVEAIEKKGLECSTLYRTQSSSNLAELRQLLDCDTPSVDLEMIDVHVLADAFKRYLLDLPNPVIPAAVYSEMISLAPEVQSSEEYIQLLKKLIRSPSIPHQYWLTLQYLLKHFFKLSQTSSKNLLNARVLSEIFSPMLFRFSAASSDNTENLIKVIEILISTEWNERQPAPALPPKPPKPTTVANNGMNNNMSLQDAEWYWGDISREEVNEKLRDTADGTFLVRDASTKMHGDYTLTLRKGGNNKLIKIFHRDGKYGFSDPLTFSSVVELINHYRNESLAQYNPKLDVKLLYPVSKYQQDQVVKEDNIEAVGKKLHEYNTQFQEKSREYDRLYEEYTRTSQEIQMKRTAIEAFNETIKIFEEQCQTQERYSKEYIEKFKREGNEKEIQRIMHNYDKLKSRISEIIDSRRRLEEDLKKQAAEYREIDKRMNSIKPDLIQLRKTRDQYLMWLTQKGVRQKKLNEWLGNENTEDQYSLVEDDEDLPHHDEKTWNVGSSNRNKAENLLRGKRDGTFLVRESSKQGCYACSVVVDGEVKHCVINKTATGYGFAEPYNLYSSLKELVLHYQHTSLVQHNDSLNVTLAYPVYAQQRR", "test": "Commercial kinase activity assay (Millipore, HTRF)", "assay_type": "biochemical", "conditions": "10 μM test compound", "description": "LOK (h) was incubated with 8 mM MOPS pH 7.0, 0.2 mM EDTA, 250 μM […], 10 mM MgAcetate and [γ-^33P-ATP] (specific activity approx. 500 cpm/pmol, concentration as required). The reaction was initiated by the addition of the MgATP mix. After incubation for 40 minutes at room temperature, the reaction was stopped by the addition of 3% phosphoric acid solution. 10 μL of the reaction was then spotted onto a P30 filtermat and washed three times for 5 minutes in 75 mM phosphoric acid and once in methanol prior to drying and scintillation counting. PI3K p110β/p85α (h) PI3K (p110β/p85α) (h) was incubated in assay buffer containing 10 μM phosphatidylinositol-4,5-bisphosphate and MgATP (concentration as required). The reaction was initiated by the addition of the MgATP mix. After incubation for 30 minutes at room temperature, the reaction was stopped by the addition of stop solution containing EDTA and biotinylated phosphatidylinositol-3,4,5-trisphosphate. Finally, detection buffer was added, which contains europium-labelled anti-GST monoclonal antibody, GST-tagged GRP1 PH domain and streptavidinallophycocyanin. The plate was then read in time-resolved fluorescence mode and the homogenous time-resolved fluorescence (HTRF®) signal determined according to the formula HTRF=10000×(Em665nm/Em620 nm). […]"}, "[2]": {"target": "T2, TESK1 (Homo sapiens, UniProt Q15569)", "T2 construct": "made in house; host or cells: E. coli BL21-derived host (T7 phage) or HEK-293", "T2 sequence (Q15569 whole entry)": "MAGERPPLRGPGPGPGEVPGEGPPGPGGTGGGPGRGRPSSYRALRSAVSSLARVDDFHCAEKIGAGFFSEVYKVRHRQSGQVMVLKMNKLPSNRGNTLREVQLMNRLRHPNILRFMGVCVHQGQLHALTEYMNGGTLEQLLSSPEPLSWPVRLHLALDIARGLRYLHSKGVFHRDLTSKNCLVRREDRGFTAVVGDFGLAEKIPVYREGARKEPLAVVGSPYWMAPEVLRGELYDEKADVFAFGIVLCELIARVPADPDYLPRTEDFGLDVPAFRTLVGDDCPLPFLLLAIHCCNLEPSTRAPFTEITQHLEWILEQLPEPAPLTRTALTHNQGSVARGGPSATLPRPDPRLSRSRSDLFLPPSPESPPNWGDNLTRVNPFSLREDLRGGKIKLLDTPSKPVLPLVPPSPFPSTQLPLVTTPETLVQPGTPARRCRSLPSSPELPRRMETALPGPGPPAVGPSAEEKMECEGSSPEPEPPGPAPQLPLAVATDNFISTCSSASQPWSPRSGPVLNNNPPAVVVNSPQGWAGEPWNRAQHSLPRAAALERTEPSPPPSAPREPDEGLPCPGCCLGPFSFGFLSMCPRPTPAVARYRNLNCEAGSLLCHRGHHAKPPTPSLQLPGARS", "test": "Kinase-tagged phage competition binding assay (qPCR), 382-kinase library"}, "[3]": {"test_system": "murine splenocytes stimulated with α-CD3 antibody", "test": "Cytokine secretion after α-CD3 stimulation", "assay_type": "cell-based, Balb/C mice", "conditions": "Mus musculus, Splenocyte, 24 h", "description": "The ability of test compounds to inhibit cytokine release by murine splenocytes after stimulation with α-CD3 antibody was also investigated.\n2×10^6 splenocytes from Balb/C female mice, 8-10 weeks old in 220 μl of complete medium were stimulated with 0.1 μg of hamster anti mouse CD3ε antibody in presence of various concentrations of test compounds. After 24 h of incubation at 37° C., 5% CO2, supernatant were collected and cytokine titers were determined by flow cytometry according manufacturer protocols (MCB United States, Arlington, Mass., USA).\nThe results are shown in FIG. 1 compared to a DMSO negative control (▾). […]."}, "[4]": {"target": "T3, RIOK2 (Homo sapiens, UniProt Q9BVS4)", "T3 construct": "made in house; host or cells: E. coli BL21-derived host (T7 phage) or HEK-293", "T3 sequence (Q9BVS4 whole entry)": "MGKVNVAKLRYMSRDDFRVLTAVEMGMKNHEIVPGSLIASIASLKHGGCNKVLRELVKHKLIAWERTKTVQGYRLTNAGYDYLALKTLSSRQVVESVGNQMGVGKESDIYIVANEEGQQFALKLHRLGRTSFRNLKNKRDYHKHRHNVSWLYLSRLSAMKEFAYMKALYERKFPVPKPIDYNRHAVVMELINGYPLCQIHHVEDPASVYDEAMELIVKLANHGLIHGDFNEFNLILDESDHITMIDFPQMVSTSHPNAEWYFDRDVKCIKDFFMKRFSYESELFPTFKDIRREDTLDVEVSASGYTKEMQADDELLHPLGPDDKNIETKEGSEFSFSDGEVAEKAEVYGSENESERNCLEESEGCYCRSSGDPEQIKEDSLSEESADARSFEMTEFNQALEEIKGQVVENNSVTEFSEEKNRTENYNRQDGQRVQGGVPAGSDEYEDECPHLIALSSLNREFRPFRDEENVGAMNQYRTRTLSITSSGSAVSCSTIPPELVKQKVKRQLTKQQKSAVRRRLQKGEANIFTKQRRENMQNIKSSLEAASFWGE", "test": "Kinase-tagged phage competition binding assay (qPCR), 382-kinase library"}, "[5]": {"target": "T4, ADCK3 (Homo sapiens, UniProt Q8NI60)", "T4 construct": "made in house; host or cells: E. coli BL21-derived host (T7 phage) or HEK-293", "T4 sequence (Q8NI60 163-647)": "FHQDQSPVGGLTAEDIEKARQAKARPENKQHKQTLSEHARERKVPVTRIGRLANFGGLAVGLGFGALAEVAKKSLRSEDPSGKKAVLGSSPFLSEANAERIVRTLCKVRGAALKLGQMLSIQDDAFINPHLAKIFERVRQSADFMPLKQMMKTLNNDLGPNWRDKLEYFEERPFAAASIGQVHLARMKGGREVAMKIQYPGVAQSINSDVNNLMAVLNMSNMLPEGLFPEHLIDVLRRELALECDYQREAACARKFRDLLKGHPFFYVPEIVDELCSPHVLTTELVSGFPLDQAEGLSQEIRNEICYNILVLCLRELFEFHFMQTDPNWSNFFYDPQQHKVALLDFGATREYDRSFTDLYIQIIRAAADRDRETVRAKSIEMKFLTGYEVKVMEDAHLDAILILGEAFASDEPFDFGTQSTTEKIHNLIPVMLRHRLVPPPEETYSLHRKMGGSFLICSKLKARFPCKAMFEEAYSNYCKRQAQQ", "test": "Kinase-tagged phage competition binding assay (qPCR), 382-kinase library"}, "[6]": {"test_system": "Peripheral blood mononuclear cells (PBMCs) mixed with mitomycin C treated RPMI1788 cells", "test": "Mixed lymphocyte reaction (MLR) assay, 3H-thymidine uptake", "quoted_text": "In the MLR assay PBMCs from two individuals are mixed together in tissue culture for several days. […] In the one-way MLR test, the mononuclear cells from one of the individuals are inactivated (usually by treatment with mitomycin C or irradiation), thereby allowing only the untreated remaining population of mononuclear cells, such as lymphocytes, to proliferate in response to foreign histocompatibility antigens.\nThe immunosuppressive effect of test compounds was also investigated using MLR assays. Peripheral blood mononuclear cells (PBMCs) were isolated from heparinized blood of healthy donors by density-gradient centrifugation over Lymphoprep. […] RPMI1788 cells were treated with 30 μg/mL mitomycin C for 20 min at 37° C., washed four times with medium, and finally suspended in complete RPMI medium to a density of 0.45×10^6 cells/mL. An amount of 100 μL of each cell suspension was mixed with 20 μL of diluted compound. The mixed cells were cultured at 37° C. for 6 days in 5% CO2. […] Thereafter, the cells were harvested on glass filter paper and the counts per minute (cpm) determined in a liquid scintillation counter."}, "[7]": {"target": "T5, PAK1 (Homo sapiens, UniProt Q13153)", "T5 construct": "made in house; host or cells: E. coli BL21-derived host (T7 phage) or HEK-293", "T5 sequence (Q13153 whole entry)": "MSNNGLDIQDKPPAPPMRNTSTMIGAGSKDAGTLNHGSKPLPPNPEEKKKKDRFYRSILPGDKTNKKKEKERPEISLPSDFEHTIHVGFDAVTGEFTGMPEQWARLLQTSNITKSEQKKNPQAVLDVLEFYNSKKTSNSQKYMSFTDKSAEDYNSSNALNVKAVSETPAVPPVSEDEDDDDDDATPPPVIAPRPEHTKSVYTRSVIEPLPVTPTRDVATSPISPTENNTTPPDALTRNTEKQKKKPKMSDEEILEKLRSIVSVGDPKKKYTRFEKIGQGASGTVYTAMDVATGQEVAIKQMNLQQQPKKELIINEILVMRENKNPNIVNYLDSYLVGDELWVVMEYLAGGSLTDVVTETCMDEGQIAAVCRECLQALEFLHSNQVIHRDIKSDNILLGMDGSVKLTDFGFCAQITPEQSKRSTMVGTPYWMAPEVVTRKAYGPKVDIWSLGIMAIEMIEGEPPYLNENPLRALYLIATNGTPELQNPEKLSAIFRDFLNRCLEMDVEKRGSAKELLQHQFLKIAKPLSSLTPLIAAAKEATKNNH", "test": "Kinase-tagged phage competition binding assay (qPCR), 382-kinase library"}, "[8]": {"conditions": "10 μM compound, read-out: % Inhibition of substrate binding"}, "[9]": {"conditions": "stated for the 8 kinases of Table 1"}}, "note": "Where two headings read alike, the source gives them in different places.", "data": [{"compound": "Nc1nc(N2CCN(C(=O)COc3ccc(Cl)cc3)CC2)c2nc(-c3cccnc3)sc2n1", "note": "[formula (1), 5-amino-7-[4-(4-chlorophenoxyacetyl)piperazin-1-yl]-2-(pyridin-3-yl)thiazolo[5,4-d]pyrimidine]", "values": [{"measurement": "Kinase activity", "setting": "[1]", "result": "100 percentage of control"}, {"measurement": "inhibition at 10 µM", "setting": "[2]; [8]", "result": 51, "unit": "%"}, {"measurement": "IC50", "setting": "[2]; [9]", "result": "< 10000", "unit": "nM"}, {"measurement": "IC50", "setting": "[3]; read-out: IC50 for inhibition of IFNγ release", "result": 204, "unit": "nM"}, {"measurement": "IC50", "setting": "[3]; read-out: IC50 for inhibition of IL2 release", "result": 76, "unit": "nM"}, {"measurement": "inhibition at 10 µM", "setting": "[4]; [8]", "result": 94, "unit": "%"}, {"measurement": "IC50", "setting": "[4]; [9]", "result": "< 10000", "unit": "nM"}, {"measurement": "inhibition at 10 µM", "setting": "[5]; [8]", "result": 68, "unit": "%"}, {"measurement": "IC50", "setting": "[5]; [9]", "result": "< 10000", "unit": "nM"}, {"measurement": "IC50", "setting": "[6]; RPMI-1788, 144 h, read-out: IC50 MLR, 6 days culture", "result": "< 50", "unit": "nM"}, {"measurement": "IC50", "setting": "[6]; read-out: IC50 MLR, 6 days culture", "result": 30, "unit": "nM"}, {"measurement": "inhibition at 10 µM", "setting": "[7]; [8]", "result": 54, "unit": "%"}, {"measurement": "IC50", "setting": "[7]; [9]", "result": "< 10000", "unit": "nM"}]}]}
